Patent publication US12448388B2, “PRMT5 inhibitors and uses thereof” (Gilead Sciences, Inc., priority 2023, dated 2025)

tested on: HCT116 MTAP-deleted cell lines; test: Cell viability assay (CellTiter-Glo, 7 days), HCT116 MTAP-deleted; assay type: cell-based; settings: Homo sapiens, HCT-116; cell viability, HCT116 MTAP-deleted; class symbols; read-out: CC50
Method in brief: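 Read-out was CellTiter-Glo luminescence after a 7-day incubation (37 °C, 5% CO2) of HCT116 cells, MTAP-deleted or WT, on dose-response compound plates. CC50 values come from each line; where marked *, selectivity is overstated because poor solubility impaired the WT CC50 measurement.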

First: Cc1ncc2c(N)nc3ccc(C(=O)N4CCC5(CC4)C(=O)Nc4ccccc45)cc3n12 [Ff-65, 1′-(4-amino-1-methylimidazo[1,5-a]quinoxaline-8-carbonyl)spiro[indoline-3,4′-piperidin]-2-one]
Second: Cc1ncc2c(N)nc3cc(F)c(C(=O)N4CCOC[C@@H]4c4ccc(C(F)(F)F)cc4)cc3n12 [Ff-92, (S)-(4-amino-7-fluoro-1-methylimidazo[1,5-a]quinoxalin-8-yl)(3-(4-(trifluoromethyl)phenyl)morpholino)methanone]
The CC50 of the first is higher: > 1000 nM for the first, < 100 nM for the second.

Compared with `Nc1nc2cc(F)c(C(=O)N3CC[C@@H]4Oc5cc(C(F)(F)F)ccc5[C@@H]43)cc2n2cncc12` [Ff-66, (4-amino-7-fluoroimidazo[1,5-a]quinoxalin-8-yl)((3aS,8bS)-6-(trifluoromethyl)-2,3,3a,8b-tetrahydro-1H-benzofuro[3,2-b]pyrrol-1-yl)methanone], `Nc1nc2cc(F)c(C(=O)N3CCC[C@@H]4Oc5cc(C(F)(F)F)c(F)cc5[C@@H]43)cc2n2cncc12` [Ff-105, (4-amino-7-fluoroimidazo[1,5-a]quinoxalin-8-yl)((4aS,9bS)-8-fluoro-7-(trifluoromethyl)-3,4,4a,9b-tetrahydrobenzofuro[3,2-b]pyridin-1(2H)-yl)methanone] is lower in CC50: 100 to 1000 nM for the first, < 100 nM for the second.

`Cc1ncn2c1c(N)nc1cc(F)c(C(=O)N(C)C3CCc4nc(C(F)(F)F)ccc43)cc12` (stereo not shown) [Ff-68, 4-amino-7-fluoro-N,3-dimethyl-N-(2-(trifluoromethyl)-6,7-dihydro-5H-cyclopenta[b]pyridin-5-yl)imidazo[1,5-a]quinoxaline-8-carboxamide] and `CN(C(=O)c1cc2c(cc1F)nc(N)c1cncn12)[C@@H]1COc2cc(-c3cnn(C(F)(F)F)c3)ccc21` [Ff-95, (S)-4-amino-7-fluoro-N-methyl-N-(6-(1-(trifluoromethyl)-1H-pyrazol-4-yl)-2,3-dihydrobenzofuran-3-yl)imidazo[1,5-a]quinoxaline-8-carboxamide] cannot be ordered by CC50: < 100 nM for the first, < 100 nM for the second.

First: C[C@H](C(=O)N(C)C)N(Cc1ccc(C(F)(F)F)cc1F)C(=O)c1cc2c(cc1F)nc(N)c1cncn12 [Ff-69, 4-amino-N-[(1R)-2-(dimethylamino)-1-methyl-2-oxo-ethyl]-7-fluoro-N-[[2-fluoro-4-(trifluoromethyl)phenyl]methyl]imidazo[1,5-a]quinoxaline-8-carboxamide]
Second: CN1CC[C@@H](N(Cc2ccc(C(F)(F)F)cc2F)C(=O)c2cc3c(cc2F)nc(N)c2cncn23)C1=O [Ff-70, 4-amino-7-fluoro-N-[[2-fluoro-4-(trifluoromethyl)phenyl]methyl]-N-[(3R)-1-methyl-2-oxo-pyrrolidin-3-yl]imidazo[1,5-a]quinoxaline-8-carboxamide]
The CC50 of the first is higher: 100 to 1000 nM for the first, < 100 nM for the second.

`CCN(Cc1ccc(F)cc1Cl)C(=O)c1ccc2nc(N)c3cncn3c2c1` [Ff-71, 4-amino-N-(2-chloro-4-fluorobenzyl)-N-ethylimidazo[1,5-a]quinoxaline-8-carboxamide] and `CC(C)N(Cc1ccc(F)cc1Cl)C(=O)c1ccc2nc(N)c3cncn3c2c1` [Ff-72, 4-amino-N-(2-chloro-4-fluorobenzyl)-N-isopropylimidazo[1,5-a]quinoxaline-8-carboxamide] fall in the same range of CC50: 100 to 1000 nM for the first, 100 to 1000 nM for the second.

Compared with `Nc1nc2cc(F)c(C(=O)N(Cc3ccc(F)cc3Cl)C3CCC3)cc2n2cncc12` [Ff-73, 4-amino-N-(2-chloro-4-fluorobenzyl)-N-cyclobutyl-7-fluoroimidazo[1,5-a]quinoxaline-8-carboxamide], `CN(C(=O)c1cc2c(cc1F)nc(N)c1cncn12)[C@@H]1COc2cc(Br)ccc21` [Ff-94, (S)-4-amino-N-(6-bromo-2,3-dihydrobenzofuran-3-yl)-7-fluoro-N-methylimidazo[1,5-a]quinoxaline-8-carboxamide] is lower in CC50: 100 to 1000 nM for the first, < 100 nM for the second.

First: Nc1nc2ccc(C(=O)N3CCOC[C@@H]3c3ccc(C(F)(F)F)cc3)cc2n2cncc12 [Ff-84, (S)-(4-aminoimidazo[1,5-a]quinoxalin-8-yl)(3-(4-(trifluoromethyl)phenyl)morpholino)methanone]
Second: Nc1nc2cnc(C(=O)N3CCOC[C@@H]3c3ccc(C(F)(F)F)cc3)cc2n2cncc12 [Ff-86, (S)-(4-aminoimidazo[1,5-a]pyrido[3,4-e]pyrazin-8-yl)(3-(4-(trifluoromethyl)phenyl)morpholino)methanone]
The CC50 of the first is higher: 100 to 1000 nM for the first, < 100 nM for the second.

`Nc1nc2cnc(C(=O)N3CCCC[C@@H]3c3ccc(C(F)(F)F)cc3)cc2n2cncc12` [Ff-87, (R)-(4-aminoimidazo[1,5-a]pyrido[3,4-e]pyrazin-8-yl)(2-(4-(trifluoromethyl)phenyl)piperidin-1-yl)methanone] and `C[C@@H]1CN(C(=O)c2cc3c(cn2)nc(N)c2cncn23)[C@H]2c3ccc(C(F)(F)F)cc3C[C@H]2O1` [Ff-98, (4-aminoimidazo[1,5-a]pyrido[3,4-e]pyrazin-8-yl)((2R,4aS,9aR)-2-methyl-7-(trifluoromethyl)-2,3,9,9a-tetrahydroindeno[2,1-b][1,4]oxazin-4(4aH)-yl)methanone] cannot be ordered by CC50: < 100 nM for the first, < 100 nM for the second.

`C[C@H]1CN(C(=O)c2ccc3nc(N)c4cncn4c3c2)[C@H]2c3ccc(C(F)(F)F)cc3C[C@H]2O1` [Ff-89, (4-aminoimidazo[1,5-a]quinoxalin-8-yl)((2S,4aS,9aR)-2-methyl-7-(trifluoromethyl)-2,3,9,9a-tetrahydroindeno[2,1-b][1,4]oxazin-4(4aH)-yl)methanone] and `C[C@H]1CN(C(=O)c2cc3c(cc2F)nc(N)c2cncn23)[C@H]2c3ccc(Br)cc3C[C@H]2O1` [Ff-93, (4-amino-7-fluoroimidazo[1,5-a]quinoxalin-8-yl)((2S,4aS,9aR)-7-bromo-2-methyl-2,3,9,9a-tetrahydroindeno[2,1-b][1,4]oxazin-4(4aH)-yl)methanone] cannot be ordered by CC50: < 100 nM for the first, < 100 nM for the second.

First: C[C@H]1CN(C(=O)c2cc3c(cc2F)nc(N)c2cncn23)[C@H]2c3ccc(-c4cnn(C(F)F)c4)cc3C[C@H]2O1 [Ff-96, (4-amino-7-fluoroimidazo[1,5-a]quinoxalin-8-yl)((2S,4aS,9aR)-7-(1-(difluoromethyl)-1H-pyrazol-4-yl)-2-methyl-2,3,9,9a-tetrahydroindeno[2,1-b][1,4]oxazin-4(4aH)-yl)methanone]
Second: C[C@H]1CN(C(=O)c2cc3c(cc2F)nc(N)c2cncn23)[C@H]2c3ccc(-c4cnn(C(F)(F)F)c4)cc3C[C@H]2O1 [Ff-97, (4-amino-7-fluoroimidazo[1,5-a]quinoxalin-8-yl)((2S,4aS,9aR)-2-methyl-7-(1-(trifluoromethyl)-1H-pyrazol-4-yl)-2,3,9,9a-tetrahydroindeno[2,1-b][1,4]oxazin-4(4aH)-yl)methanone]
The CC50 of the first is lower: < 100 nM for the first, 100 to 1000 nM for the second.

Compared with `Nc1nc2ccc(C(=O)N3CCOC[C@@H]3c3ccc(C(F)(F)F)cc3)cc2n2cnc(F)c12` [Ff-103, (S)-(4-amino-3-fluoroimidazo[1,5-a]quinoxalin-8-yl)(3-(4-(trifluoromethyl)phenyl)morpholino)methanone], `Cc1ncc2c(N)nc3cnc(C(=O)N4CCC[C@@H]5Oc6c(ccc(C(F)(F)F)c6F)[C@@H]54)cc3n12` [Ff-107, (4-amino-1-methylimidazo[1,5-a]pyrido[3,4-e]pyrazin-8-yl)((4aS,9bS)-6-fluoro-7-(trifluoromethyl)-3,4,4a,9b-tetrahydrobenzofuro[3,2-b]pyridin-1(2H)-yl)methanone] is lower in CC50: 100 to 1000 nM for the first, < 100 nM for the second.
